Experimental data as given in patent US8557800B2, “Sphingosine kinase inhibitors” (Apogee Biotechnology Corporation, priority 2005, dated 2013).
Values joined by “and” are separate entries in the source; they are usually repeats but may differ in a detail not shown here. Equal entries are not always repeated.

Experiments:
[1] = tested on: mice, multiple cycles of DSS-induced inflammation; experiment: Chronic DSS-colitis model (35-day); format: in vivo, mouse
Experimental: FIG. 13. Effects of Compound 62 on the DAI in the chronic DSS-colitis model. Mice received 2 cycles (7 days per cycle) of DSS (1.5% cycle 1 and 1% cycle 2), 2 cycles of normal drinking water and were randomized by DAI on Day 28 into groups of 8 mice. The mice were then treated as follows: No DSS (▪)—normal drinking water and orally dosed with PEG400 every day for 7 days (water control); DSS alone (▴)—drinking water containing 1.5% DSS and orally dosed with PEG daily for 7 days; DSS+Compound 62 (▾)—drinking water containing 1.5% DSS and orally dosed with Compound 62 (50 mg/kg) every day for 7 days; DSS+Dipentum (♦)—drinking water containing 1.5% DSS and orally dosed with Dipentum (50 mg/kg). *p<0.001 versus No DSS group.
A 35-day model of IBD was used to evaluate the effectiveness of the SK inhibitors in mice that experience multiple cycles of DSS-induced inflammation. This chronic model is similar to the acute model, except that the DSS concentration in the drinking water is lower and animals receive periodic exposure to DSS (DSS on days 1-7, water on Days 8-13, DSS on day 14-21, water on Days 22-27 and then DSS until the completion of the study on Day 35). In these experiments, treatment of the mice with an SK inhibitor or Dipentum began on Day 28 and continued daily until the completion of the study. The DAI index was monitored every other day until Day 28 and then daily until Day 35. Animals were sacrificed on Day 35, and changes in the colon length and cytokine profiles were measured.

MCF-7 (breast, ER+) = experiment: Human tumor cell line panel, sulforhodamine B; format: cell-based; details: MCF7, 48 hours, mean ± sd
[2] = tested on: female DBA/1 mice, collagen-induced arthritis; experiment: Collagen-Induced Arthritis (CIA) model; format: in vivo, mouse; details: Day 12
Experimental: The anti-arthritis activities of the SK inhibitor Compound 62 were assessed in the Collagen-Induced Arthritis (CIA) model. Female DBA/1 mice were injected subcutaneously in the tail with chicken immunization-grade type II collagen (Chondrex) emulsified in complete Freund's adjuvant (Sigma) at 2 mg/mL. Three weeks later, the mice received a collagen booster in incomplete Freund's adjuvant and were monitored daily thereafter for arthritic symptoms. […] The severity of disease in each animal was quantified by measurement of the hind paw volume with digital calipers. […] Differences among treatment groups were tested using ANOVA.

Panc-1 (pancreas) = experiment: Human tumor cell line panel, sulforhodamine B; format: cell-based; details: 48 hours, mean ± sd
[3] = tested on: male Lewis rats, adjuvant-induced arthritis; experiment: Adjuvant-induced arthritis model; format: in vivo, rat
Experimental: Adjuvant-induced arthritis is another widely used assay that recapitulates many features of human rheumatoid arthritis, and so is useful in the evaluation of new drug candidates. Age- and weight-matched male Lewis rats (150-170 g) were injected subcutaneously in the tail with 1 mg of Mycobacterium butyricum (Difco, killed dried) suspended in 0.1 ml of light mineral oil. Symptoms of immune reactivity were present after 2 weeks. Responsive rats were randomized into treatment groups, and received oral daily doses (1 ml) of: solvent alone (0.375% Tween-80); 100 mg/kg Compound 62; 35 mg/kg Compound 62; or 5 mg/kg Compound 62, or intraperitoneal injections of indomethacin (5 mg/kg) every other day as a positive control. The severity of disease in each animal was quantified by measurement of the hind paw thickness.

Hep-G2 (liver) = experiment: Human tumor cell line panel, sulforhodamine B; format: cell-based; details: HepG2, 48 hours, mean ± sd
[4] = tested on: VEGF-induced vascular leakage; experiment: VEGF-induced vascular permeability (Miles assay); format: in vivo, mouse; details: 75 mg/kg intraperitoneal or 100 mg/kg oral gavage, nude mice
Experimental: The effects of VEGF on vascular leakage in vivo were measured as described by Miles and Miles (Miles et al., 1952, J Physiol 118: 228). Groups of female athymic nude mice (approximately 20 g) were given intraperitoneal injections of DMSO alone or Compound 62 (75 mg/kg) in a volume of 50 microliters. In some experiments, Compound 62 was administered by oral gavage at a dose of 100 mg/kg. After 30 minutes, 100 μL of 0.5% Evan's blue dye in PBS was administered by tail vein injection. Thirty minutes later, mice received the first of 3 sequential (every 30 minutes) intradermal injections of VEGF (400 ng in 20 μL of PBS per injection) on the left hind flank. As a control, similar injections of PBS were administered on the right hind flank. Thirty minutes after the last injection, leakage of the dye from the vasculature into the skin was assessed by measuring the length and width of the spots of blue-colored skin using calipers.

IKKα = IKKα (Homo sapiens, UniProt O15111); experiment: Kinase selectivity panel; format: biochemical; details: read-out: percent of control activity, IKKα
Chain of IKKα (O15111 whole entry, species assumed, the tested form may be a part): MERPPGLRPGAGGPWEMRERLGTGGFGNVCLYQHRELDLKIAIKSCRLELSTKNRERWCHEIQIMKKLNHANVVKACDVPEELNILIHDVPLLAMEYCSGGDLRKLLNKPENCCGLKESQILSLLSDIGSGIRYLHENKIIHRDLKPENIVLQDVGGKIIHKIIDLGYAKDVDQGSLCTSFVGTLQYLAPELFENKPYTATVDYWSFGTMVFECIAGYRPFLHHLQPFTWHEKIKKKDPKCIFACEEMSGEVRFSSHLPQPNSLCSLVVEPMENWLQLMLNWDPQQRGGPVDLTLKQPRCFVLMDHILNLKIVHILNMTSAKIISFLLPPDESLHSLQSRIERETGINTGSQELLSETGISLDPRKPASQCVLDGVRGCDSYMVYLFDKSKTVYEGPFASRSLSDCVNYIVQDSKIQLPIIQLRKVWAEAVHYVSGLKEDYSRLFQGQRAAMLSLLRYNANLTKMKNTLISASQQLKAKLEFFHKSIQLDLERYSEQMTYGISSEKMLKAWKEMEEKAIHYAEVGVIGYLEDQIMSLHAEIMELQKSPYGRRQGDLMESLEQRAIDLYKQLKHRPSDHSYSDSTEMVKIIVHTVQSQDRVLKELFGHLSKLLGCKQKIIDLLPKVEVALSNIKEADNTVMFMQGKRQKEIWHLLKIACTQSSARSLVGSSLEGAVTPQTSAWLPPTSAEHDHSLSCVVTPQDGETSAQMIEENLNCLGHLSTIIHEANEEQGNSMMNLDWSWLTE
Experimental: (§1) A common problem with attempts to develop protein kinase inhibitors is the lack of selectivity toward the target kinase since the majority of these compounds interact with nucleotide-binding domains that are highly conserved among kinases. […] The compound was tested at a single concentration of 50 μM.

P38 MAP kinase 1 = P38 MAP kinase 1 (Homo sapiens, UniProt Q16539); experiment: Kinase selectivity panel; format: biochemical; details: read-out: percent of control activity, P38 MAP kinase 1
Chain of P38 MAP kinase 1 (Q16539 whole entry): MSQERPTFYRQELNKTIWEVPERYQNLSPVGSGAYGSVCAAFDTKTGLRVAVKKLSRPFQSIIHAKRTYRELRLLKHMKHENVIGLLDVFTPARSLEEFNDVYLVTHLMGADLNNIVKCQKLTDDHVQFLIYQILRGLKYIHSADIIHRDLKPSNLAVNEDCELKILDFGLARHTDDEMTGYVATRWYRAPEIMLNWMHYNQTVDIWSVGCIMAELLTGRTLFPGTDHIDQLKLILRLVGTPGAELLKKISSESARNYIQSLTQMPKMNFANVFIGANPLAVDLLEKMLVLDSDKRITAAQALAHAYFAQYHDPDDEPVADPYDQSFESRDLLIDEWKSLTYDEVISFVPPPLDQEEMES
Experimental: as §1

PKBγ = PKBγ (Homo sapiens, UniProt Q9Y243); experiment: Kinase selectivity panel; format: biochemical; details: read-out: percent of control activity, PKBγ
Chain of PKBγ (Q9Y243 whole entry, species assumed): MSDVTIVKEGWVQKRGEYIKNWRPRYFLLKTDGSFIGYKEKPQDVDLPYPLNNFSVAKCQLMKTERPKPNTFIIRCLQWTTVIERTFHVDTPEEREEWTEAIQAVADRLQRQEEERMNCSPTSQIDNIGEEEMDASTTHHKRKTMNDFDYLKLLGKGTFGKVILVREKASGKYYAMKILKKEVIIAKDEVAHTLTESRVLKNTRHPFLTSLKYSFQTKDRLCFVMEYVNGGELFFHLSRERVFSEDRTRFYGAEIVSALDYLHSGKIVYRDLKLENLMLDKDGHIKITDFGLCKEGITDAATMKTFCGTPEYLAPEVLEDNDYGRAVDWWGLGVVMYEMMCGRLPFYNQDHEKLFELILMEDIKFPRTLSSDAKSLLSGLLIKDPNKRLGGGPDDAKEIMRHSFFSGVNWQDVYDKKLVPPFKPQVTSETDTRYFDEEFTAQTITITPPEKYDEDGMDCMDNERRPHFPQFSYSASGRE
Experimental: as §1

MEK kinase 1 = experiment: Kinase selectivity panel; format: biochemical; details: 50 μM
Experimental: as §1

CDK2/cyclinE = CDK2/cyclinE (Homo sapiens, UniProt P24941); experiment: Kinase selectivity panel; format: biochemical; details: read-out: percent of control activity, CDK2/cyclinE
Experimental: as §1

cSrc = cSrc (Homo sapiens, UniProt P12931); experiment: Kinase selectivity panel; format: biochemical; details: read-out: percent of control activity, cSrc
Chain of cSrc (P12931 whole entry, species assumed): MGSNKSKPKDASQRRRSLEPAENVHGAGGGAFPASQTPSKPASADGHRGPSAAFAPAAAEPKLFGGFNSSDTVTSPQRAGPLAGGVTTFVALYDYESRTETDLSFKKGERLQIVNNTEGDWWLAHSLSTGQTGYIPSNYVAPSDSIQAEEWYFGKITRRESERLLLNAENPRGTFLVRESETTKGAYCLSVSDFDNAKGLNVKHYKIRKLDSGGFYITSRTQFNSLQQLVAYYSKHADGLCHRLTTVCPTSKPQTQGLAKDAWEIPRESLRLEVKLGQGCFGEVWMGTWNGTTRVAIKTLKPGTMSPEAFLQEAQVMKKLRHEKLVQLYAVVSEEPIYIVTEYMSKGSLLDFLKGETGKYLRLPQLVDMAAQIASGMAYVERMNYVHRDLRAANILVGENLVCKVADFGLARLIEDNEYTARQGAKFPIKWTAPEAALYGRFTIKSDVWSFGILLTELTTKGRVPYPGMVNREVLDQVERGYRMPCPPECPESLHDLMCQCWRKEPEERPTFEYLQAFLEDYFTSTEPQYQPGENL
Experimental: as §1

Abl = Abl (Homo sapiens, UniProt P00519); experiment: Kinase selectivity panel; format: biochemical; details: read-out: percent of control activity, Abl
Chain of Abl (P00519 whole entry, species assumed): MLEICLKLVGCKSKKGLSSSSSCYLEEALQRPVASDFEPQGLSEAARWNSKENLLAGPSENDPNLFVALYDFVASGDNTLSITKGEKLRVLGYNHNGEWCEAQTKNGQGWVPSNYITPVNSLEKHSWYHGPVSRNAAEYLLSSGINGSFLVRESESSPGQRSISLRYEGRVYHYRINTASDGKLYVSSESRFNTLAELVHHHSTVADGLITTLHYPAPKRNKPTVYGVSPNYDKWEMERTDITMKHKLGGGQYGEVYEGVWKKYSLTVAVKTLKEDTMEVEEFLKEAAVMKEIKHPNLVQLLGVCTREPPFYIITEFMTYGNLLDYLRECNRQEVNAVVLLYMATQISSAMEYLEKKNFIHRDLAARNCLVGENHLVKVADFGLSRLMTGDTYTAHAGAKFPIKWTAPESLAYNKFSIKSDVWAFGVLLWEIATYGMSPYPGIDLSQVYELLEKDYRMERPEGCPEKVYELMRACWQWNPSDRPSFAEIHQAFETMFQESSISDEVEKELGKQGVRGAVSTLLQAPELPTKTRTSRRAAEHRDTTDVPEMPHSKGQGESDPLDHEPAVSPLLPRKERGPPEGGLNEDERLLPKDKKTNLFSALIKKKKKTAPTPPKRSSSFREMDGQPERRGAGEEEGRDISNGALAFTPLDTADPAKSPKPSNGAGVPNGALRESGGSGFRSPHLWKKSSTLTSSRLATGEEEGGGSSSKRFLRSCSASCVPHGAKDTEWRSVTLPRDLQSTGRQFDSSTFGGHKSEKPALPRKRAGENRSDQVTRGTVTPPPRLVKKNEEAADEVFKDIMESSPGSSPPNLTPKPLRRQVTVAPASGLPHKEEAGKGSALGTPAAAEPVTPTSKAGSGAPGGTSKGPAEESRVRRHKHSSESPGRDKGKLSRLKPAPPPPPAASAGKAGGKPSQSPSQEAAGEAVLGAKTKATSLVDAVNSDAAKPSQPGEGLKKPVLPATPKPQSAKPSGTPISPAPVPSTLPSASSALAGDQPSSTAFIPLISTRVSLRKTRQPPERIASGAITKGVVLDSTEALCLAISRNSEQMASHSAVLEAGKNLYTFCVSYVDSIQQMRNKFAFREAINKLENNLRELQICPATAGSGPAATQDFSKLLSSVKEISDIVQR
Experimental: as §1

physchem = details: aqueous with cosolvent or surfactant or cyclodextrin
[5] = 100 mg/kg orally each day 6 days per week

O=C(NCc1ccncc1)C12CC3CC(C1)CC(c1ccc(Cl)cc1)(C3)C2 [Compound 62, 3-(4-Chloro-phenyl)-adamantane-1-carboxylic acid (pyridin-4-ylmethyl)-amide]
colon length ([1]; 50 mg/kg oral daily Day 28-35, DSS alone 4.9±0.2, water 7.8±0.3): 6.2±0.2 cm | increase in DAI ([1]; 50 mg/kg oral daily from Day 28 to Day 35, third DSS exposure): significantly suppressed | colon SK expression (immunohistochemistry) ([1]; DSS mice, 50 mg/kg oral daily): clearly reduced | serum level of IL-6 ([1]; at sacrifice, Day 35): reduced | colon S1P levels ([1]; oral 50 mg/kg daily, 7 days prior to sacrifice): significant reductions | colon levels of pro-inflammatory cytokines TNFα, IL-1β, IFN-γ and IL-6 ([1]; treated during the final DSS cycle): reduced levels | IC50 (MCF-7 (breast, ER+)): 18.4 ± 7.4 µM | reduction in clinical score vs vehicle [2, 5]: 67% | reduction in the increase in hind paw thickness vs vehicle [2, 5]: 90% | histologic damage of tibiotarsal joints ([2]; 100 mg/kg orally): significantly reduced | IC50 (Panc-1 (pancreas)): 32.8 ± 0.1 µM | reduction in the arthritic response (hind paw thickness) ([3]; 5 mg/kg oral daily): 13% | reduction in the arthritic response (hind paw thickness) ([3]; 35 mg/kg oral daily): 42% | reduction in the arthritic response (hind paw thickness) ([3]; 100 mg/kg oral daily): 76% | IC50 (Hep-G2 (liver)): 6 ± 2.6 µM | vascular leakage in response to VEGF [4]: markedly reduced | remaining activity at 50 µM (IKKα): 150 ± 16% | remaining activity at 50 µM (P38 MAP kinase 1): 94 ± 2% | remaining activity at 50 µM (PKBγ): 105 ± 8% | percent of control activity, MEK kinase 1 (MEK kinase 1): 104 ± 3% | remaining activity at 50 µM (CDK2/cyclinE): 106 ± 6% | remaining activity at 50 µM (cSrc): 115 ± 3% | remaining activity at 50 µM (Abl): 98% | solubility (physchem): ≥ 15000 µg/mL and 30000 µM to 40000 µM
